Experimental data from BindingDB's records for doi:10.1074/jbc.M114.557629 (Weizmann Institute of Science, 2014).

Legend:
[1] = molecular target: Sodium/potassium-transporting ATPase subunit alpha-2/beta-1 (Homo sapiens, UniProt P05026+P50993); assay: Na,K-ATPase Inhibition Assay
[2] = molecular target: Sodium/potassium-transporting ATPase subunit alpha-1/beta-1 (Homo sapiens, UniProt P05023+P05026); assay: Na,K-ATPase Inhibition Assay

Compound | Ki [1] [nM] | Ki [2] [nM]
C[C@]12CC[C@H](O)C[C@H]1CC[C@@H]1[C@@H]2C[C@@H](O)[C@]2(C)[C@@H](C3=CC(=O)OC3)CC[C@]12O [CS337] | 130 | 139
CC1CN(C(C)C(N)=O)CCC(O[C@@H]2[C@H](C)O[C@@H](O[C@@H]3[C@H](C)O[C@@H](O[C@H]4CC[C@@]5(C)C(CCC6C5C[C@H](O)[C@]5(C)[C@@H](C7=CC(=O)OC7)CC[C@]65O)C4)C[C@@H]3O)C[C@@H]2O)O1 (some centres not stated) [DAlaN (5)] | 67 | 232
CCN1CCC(O[C@@H]2[C@H](C)O[C@@H](O[C@@H]3[C@H](C)O[C@@H](O[C@H]4CC[C@@]5(C)C(CCC6C5C[C@H](O)[C@]5(C)[C@@H](C7=CC(=O)OC7)CC[C@]65O)C4)C[C@@H]3O)C[C@@H]2O)OC(C)C1 (some centres not stated) [DEt (12)] | 18.5 | 53
CC1CN(CCN)CCC(O[C@@H]2[C@H](C)O[C@@H](O[C@@H]3[C@H](C)O[C@@H](O[C@H]4CC[C@@]5(C)C(CCC6C5C[C@H](O)[C@]5(C)[C@@H](C7=CC(=O)OC7)CC[C@]65O)C4)C[C@@H]3O)C[C@@H]2O)O1 (some centres not stated) [DEtDA (10)] | 16.7 | 69
COC(=O)CN1CCC(O[C@@H]2[C@H](C)O[C@@H](O[C@@H]3[C@H](C)O[C@@H](O[C@H]4CC[C@@]5(C)C(CCC6C5C[C@H](O)[C@]5(C)[C@@H](C7=CC(=O)OC7)CC[C@]65O)C4)C[C@@H]3O)C[C@@H]2O)OC(C)C1 (some centres not stated) [DGlMe (3)] | 128 | 540
CC1CN(CC(=O)O)CCC(O[C@@H]2[C@H](C)O[C@@H](O[C@@H]3[C@H](C)O[C@@H](O[C@H]4CC[C@@]5(C)C(CCC6C5C[C@H](O)[C@]5(C)[C@@H](C7=CC(=O)OC7)CC[C@]65O)C4)C[C@@H]3O)C[C@@H]2O)O1 (some centres not stated) [DGly (2)] | 25 | 124
CC1CN(CC(N)=O)CCC(O[C@@H]2[C@H](C)O[C@@H](O[C@@H]3[C@H](C)O[C@@H](O[C@H]4CC[C@@]5(C)C(CCC6C5C[C@H](O)[C@]5(C)[C@@H](C7=CC(=O)OC7)CC[C@]65O)C4)C[C@@H]3O)C[C@@H]2O)O1 (some centres not stated) [DGlyN (4)] | 20.4 | 152
CC1CN(C)CCC(O[C@@H]2[C@H](C)O[C@@H](O[C@@H]3[C@H](C)O[C@@H](O[C@H]4CC[C@@]5(C)C(CCC6C5C[C@H](O)[C@]5(C)[C@@H](C7=CC(=O)OC7)CC[C@]65O)C4)C[C@@H]3O)C[C@@H]2O)O1 (some centres not stated) [DMe (11)] | 15.6 | 101
CC1CN(CC(F)(F)F)CCC(O[C@@H]2[C@H](C)O[C@@H](O[C@@H]3[C@H](C)O[C@@H](O[C@H]4CC[C@@]5(C)C(CCC6C5C[C@H](O)[C@]5(C)[C@@H](C7=CC(=O)OC7)CC[C@]65O)C4)C[C@@H]3O)C[C@@H]2O)O1 (some centres not stated) [DMeCF3 (13)] | 44 | 199
CC1CN(O)CCC(O[C@@H]2[C@H](C)O[C@@H](O[C@@H]3[C@H](C)O[C@@H](O[C@H]4CC[C@@]5(C)C(CCC6C5C[C@H](O)[C@]5(C)[C@@H](C7=CC(=O)OC7)CC[C@]65O)C4)C[C@@H]3O)C[C@@H]2O)O1 (some centres not stated) [DOH (1)] | 134 | 311
CC1CN(CCC(N)=O)CCC(O[C@@H]2[C@H](C)O[C@@H](O[C@@H]3[C@H](C)O[C@@H](O[C@H]4CC[C@@]5(C)C(CCC6C5C[C@H](O)[C@]5(C)[C@@H](C7=CC(=O)OC7)CC[C@]65O)C4)C[C@@H]3O)C[C@@H]2O)O1 (some centres not stated) [DPrN (9)] | 47 | 249
CC1CN(NC(N)=O)CCC(O[C@@H]2[C@H](C)O[C@@H](O[C@@H]3[C@H](C)O[C@@H](O[C@H]4CC[C@@]5(C)C(CCC6C5C[C@H](O)[C@]5(C)[C@@H](C7=CC(=O)OC7)CC[C@]65O)C4)C[C@@H]3O)C[C@@H]2O)O1 (some centres not stated) [DSCar (8)] | 20 | 102
CC1CN(C(CO)C(=O)O)CCC(O[C@@H]2[C@H](C)O[C@@H](O[C@@H]3[C@H](C)O[C@@H](O[C@H]4CC[C@@]5(C)C(CCC6C5C[C@H](O)[C@]5(C)[C@@H](C7=CC(=O)OC7)CC[C@]65O)C4)C[C@@H]3O)C[C@@H]2O)O1 (some centres not stated) [DSer (6)] | 145 | 316
CC1CN(C(CO)C(N)=O)CCC(O[C@@H]2[C@H](C)O[C@@H](O[C@@H]3[C@H](C)O[C@@H](O[C@H]4CC[C@@]5(C)C(CCC6C5C[C@H](O)[C@]5(C)[C@@H](C7=CC(=O)OC7)CC[C@]65O)C4)C[C@@H]3O)C[C@@H]2O)O1 (some centres not stated) [DSerN (7)] | 144 | 242
CC1CN(C(CC(=O)O)CC(=O)O)CCC(O[C@@H]2[C@H](C)O[C@@H](O[C@@H]3[C@H](C)O[C@@H](O[C@H]4CC[C@@]5(C)C(CCC6C5C[C@H](O)[C@]5(C)[C@@H](C7=CC(=O)OC7)CC[C@]65O)C4)C[C@@H]3O)C[C@@H]2O)O1 (some centres not stated) [DbisGly (14)] | 34.9 | 80
C[C@H]1O[C@@H](O[C@H]2[C@@H](O)C[C@H](O[C@H]3CC[C@@]4(C)[C@H](CC[C@@H]5[C@@H]4C[C@@H](O)[C@]4(C)[C@@H](C6=CC(=O)OC6)CC[C@]54O)C3)O[C@@H]2C)C[C@H](O)[C@@H]1O [Dbis] | 74 | 196
